Laboratory results: patent US20230303540A1 (Merck Sharp & Dohme LLC, priority 2020, published 2023)

Target: GST-tagged truncated human mutant G2019S LRRK2 (Homo sapiens, UniProt Q5S007, G2019S)
Test: LRRK2 G2019S Km ATP LanthaScreen assay
Format: biochemical
Details: 134 μM ATP (Km ATP), LRRKtide substrate, mean IC50 values; read-out: LRRK2 pIC50 (converted)
In short: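 LanthaScreen TR-FRET read with fluorescein-LRRKtide and 134 μM ATP (Km) in Tris pH 8.5/10 mM MgCl2 buffer. The enzyme was preincubated 15 min with compound at room temperature, and the reaction ran 90 min at ambient temperature. Stopped with EDTA plus Tb anti-phospho-LRRKtide antibody; the 520/495 nm ratio gave a 4-parameter logistic IC50, mean of several runs.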

Structure (SMILES) | IC50 [nM]
CCc1cc2cnc(Nc3cnn(C4CC4(F)F)c3Cl)nc2cc1N1CCN(C2(C)COCC2O)CC1 (single isomer, unassigned) [Ex-8.3, (3S,4S) or (3R,4R) 4-(4-(2-((5-chloro-1-(2,2-(R) or (S)difluorocyclopropyl)-1H-pyrazol-4-yl)amino)-6-ethylquinazolin-7-yl)piperazin-1-yl)-4-methyltetrahydrofuran-3-ol] | 0.745
C[C@@H]1CN(C2COC2)CC[C@@H]1n1ncc(Nc2ncc3ccc(N4C(=O)OC[C@@H]4C)cc3n2)c1Cl [Ex-8.11, (4.5)-3-[2-({5-chloro-1-[(3R,4S)-3-methyl-1-(oxetan-3-yl)piperidin-4-yl]-1H-pyrazol-4-yl}amino)quinazolin-7-yl]-4-methyl-1,3-oxazolidin-2-one] | 1.59
Cc1c(Nc2ncc3cc(Cl)c(N4CCN(C5COC(C)(C)C5)CC4)cc3n2)cnn1C1CC1 (single isomer, unassigned) [Ex-12.5, 6-chloro-N-(1-cyclopropyl-5-methyl-1H-pyrazol-4-yl)-7-(4-(5,5-dimethyltetrahydrofuran-3-yl)piperazin-1-yl)quinazolin-2-amine] | 0.56
CCn1ncc(Nc2ncc3ccc(N4C(=O)[C@@H]5CC[C@H]4C5)nc3n2)c1C (single isomer, unassigned) [Ex-15.3, (1S,4R) or (1R,4S)-2-{2-[(1-ethyl-5-methyl-1H-pyrazol-4-yl)amino]pyrido[2,3-d]pyrimidin-7-yl}-2-azabicyclo[2.2.1]heptan-3-one] | 4.43
[2H]C([2H])([2H])n1nc(C(C)(C)n2nccn2)cc1Nc1ncc2cc(Cl)c(N3CCC(C)(O)CC3)cc2n1 [Ex-14.1, 1-(2-((3-(2-(2H-1,2,3-Triazol-2-yl)propan-2-yl)-1-(methyl-d3)-1H-pyrazol-5-yl)amino)-6-chloroquinazolin-7-yl)-4-methylpiperidin-4-ol] | 4.11
CC1(O)CC2(CN(c3cc4nc(Nc5cnn(C6CC6)c5)ncc4cc3Cl)C2)C1 [Ex-4.23, 2-{6-chloro-2-[(1-cyclopropyl-1H-pyrazol-4-yl)amino]quinazolin-7-yl}-6-methyl-2-azaspiro[3.3]heptan-6-ol] | 2.47
COC1CCC1n1ncc(Nc2ncc3cc(Cl)c(N4CCC(C)(O)CC4)cc3n2)c1C (single isomer, unassigned) [Ex-6.16, 1-(6-chloro-2-((1-((1R,2S) or (1S,2R)-2-methoxycyclobutyl)-5-methyl-1H-pyrazol-4-yl)amino)quinazolin-7-yl)-4-methylpiperidin-4-ol] | 1.57
CC1(N2CCN(c3cc4nc(Nc5cnn(CC6C[C@@H](F)[C@H](F)C6)c5)ncc4cc3Cl)CC2)COC1 [Ex-4.65, 6-chloro-N-(1-{[(3R,4R)-3,4-difluorocyclopentyl]methyl}-1H-pyrazol-4-yl)-7-[4-(3-methyloxetan-3-yl)piperazin-1-yl]quinazolin-2-amine] | 23.9
Cc1nn(C2CC3(C2)CN(C2COC2)C3)cc1Nc1ncc2ccc(N3C(=O)C4CCC3C4)cc2n1 (single isomer, unassigned) [Ex-8.6, (1R,4S) or (1S,4R)-2-[2-({3-methyl-1-[2-(oxetan-3-yl)-2-azaspiro[3.3]heptan-6-yl]-1H-pyrazol-4-yl}amino)quinazolin-7-yl]-2-azabicyclo[2.2.1]heptan-3-one] | 4.86
Cc1c(Nc2ncc3cc(Cl)c(N4CCN(C5COCC5O)CC4)cc3n2)cnn1C1CC1(F)F (single isomer, unassigned) [Ex-6.39, (3S,4S) or (3R,4R) 4-[4-(6-chloro-2-{[1-(2,2-(R) or (S)difluorocyclopropyl)-5-methyl-1H-pyrazol-4-yl]amino}quinazolin-7-yl)piperazin-1-yl]oxolan-3-ol] | 0.65
Cc1cc2cnc(Nc3cnn(C)c3C)nc2cc1N1CCN(C2(C)COCC2O)CC1 (single isomer, unassigned) [Ex-2.2, (3S,4S or 3R,4R)-4-(4-{2-[(1,5-dimethyl-1H-pyrazol-4-yl)amino]-6-methylquinazolin-7-yl}piperazin-1-yl)-4-methyloxolane-3-ol] | 36
Cc1nn(C2C[C@@H](C)O[C@@H](C)C2)cc1Nc1ncc2ccc(N3C(=O)OC[C@@H]3C)cc2n1 (stereo partly drawn) [Ex-7.5, (4S)-3-[2-({1-[(2R,6S)-2,6-dimethyloxan-4-yl]-3-methyl-1H-pyrazol-4-yl}amino)quinazolin-7-yl]-4-methyl-1,3-oxazolidin-2-one] | 33.7
Cn1cc(Nc2ncc3ccc(N4C(=O)C5CCC4C5)cc3n2)c(C(F)(F)F)n1 (stereo not shown) [Ex-7.10, 2-(2-{[1-methyl-3-(trifluoromethyl)-1H-pyrazol-4-yl]amino}quinazolin-7-yl)-2-azabicyclo[2.2.1]heptan-3-one] | 5.14
CC1(N2CCN(c3cc4nc(Nc5ccnn5C(C)(C)C)ncc4cc3Cl)CC2)COCC1O (single isomer, unassigned) [Ex-6.48, (3S,4S) or (3R,4R) 4-(4-(2-((1-(tert-butyl)-1H-pyrazol-5-yl)amino)-6-chloroquinazolin-7-yl)piperazin-1-yl)-4-methyltetrahydrofuran-3-ol] | 11.4
CC1(N2CCN(c3cc4nc(Nc5cnn(C6CC6(F)F)c5Cl)ncc4cc3Cl)CC2)COCC1O (single isomer, unassigned) [Ex-6.2, (3S,4S) or (3R,4R) 4-(4-(6-chloro-2-((5-chloro-1-(2,2-(R) or (S)difluorocyclopropyl)-1H-pyrazol-4-yl)amino)quinazolin-7-yl)piperazin-1-yl)-4-methyltetrahydrofuran-3-ol] | 0.08
Clc1cc2cnc(Nc3cnn(C45CC(C4)C5)c3Cl)nc2cc1N1CCC2(CCOC2)CC1 [Ex-3.39, N-[1-(bicyclo[1.1.1]pentan-1-yl)-5-chloro-1H-pyrazol-4-yl]-6-chloro-7-(2-oxa-8-azaspiro[4.5]decan-8-yl) quinazolin-2-amine] | 3.23
COCC12CC(n3cc(Nc4ncc5cc(Cl)c(N6CCC7(CC6)COC(CO)C7)cc5n4)cn3)(C1)C2 (single isomer, unassigned) [Ex-3.17, (R) or (S)-{8-[6-chloro-2-({1-[3-(methoxymethyl)bicyclo[1.1.1]pentan-1-yl]-1H-pyrazol-4-yl}amino)quinazolin-7-yl]-2-oxa-8-azaspiro[4.5]decan-3-yl}methanol] | 2.28
CC1(N2CCN(c3cc4nc(Nc5cnn(C6CCC6)c5Cl)ncc4cc3Cl)CC2)COC1 [Ex-4.50, 6-chloro-N-(5-chloro-1-cyclobutyl-1H-pyrazol-4-yl)-7-[4-(3-methyloxetan-3-yl)piperazin-1-yl]quinazolin-2-amine] | 4.61
Cc1c(Nc2ncc3ccc(N4C(=O)OCC4C4CC4)cc3n2)cnn1C1CCOCC1 (single isomer, unassigned) [Ex-7.14, (R) or (S) 4-cyclopropyl-3-(2-{[5-methyl-1-(oxan-4-yl)-1H-pyrazol-4-yl]amino}quinazolin-7-yl)-1,3-oxazolidin-2-one] | 0.749
Cc1cc2cnc(Nc3cnn(C)c3C)nc2cc1N1CCN(C2COCC2O)CC1 (single isomer, unassigned) [Ex-2.3, (3S,4S or 3R,4R)-4-(4-{2-[(1,5-dimethyl-1H-pyrazol-4-yl)amino]-6-methylquinazolin-7-yl}piperazin-1-yl)oxolan-3-ol] | 1.77
F[C@H]1CN(C2COC2)CC[C@@H]1n1ncc(Nc2ncc3cc(Cl)c(N4CCC5(CC4)COC5)cc3n2)c1Cl [Ex-1.4, 6-chloro-N-{5-chloro-1-[(3S,4S)-3-fluoro-1-(oxetan-3-yl)piperidin-4-yl]-1H-pyrazol-4-yl}-7-(2-oxa-7-azaspiro[3.5]nonan-7-yl)quinazolin-2-amine] | 1.54
Cc1cc2cnc(Nc3cnn(C45CC(C4)C5)c3Cl)nc2cc1N1CC2(C1)CN(C1COCC1O)C2 (single isomer, unassigned) [Ex-5.16, (3R,4R) or (3S,4S) 4-(6-(2-((1-(bicyclo[1.1.1]pentan-1-yl)-5-chloro-1H-pyrazol-4-yl)amino)-6-methylquinazolin-7-yl)-2,6-diazaspiro[3.3]heptan-2-yl)tetrahydrofuran-3-ol] | 20.9
Cc1c(Nc2ncc3ccc(N4C(=O)OC[C@@H]4C)cc3n2)cnn1C1C[C@@H](C)O[C@@H](C)C1 (single isomer, unassigned) [Ex-7.4] | 6.75
Cn1ncc(Nc2ncc3cc(Cl)c(N4CCN(C5(C)COCC5O)CC4)cc3n2)c1C(F)F (single isomer, unassigned) [Ex-6.49, (3S,4S) or (3R,4R) 4-(4-(6-chloro-2-((5-(difluoromethyl)-1-methyl-1H-pyrazol-4-yl)amino)quinazolin-7-yl)piperazin-1-yl)-4-methyltetrahydrofuran-3-ol] | 2.07
OC1CCN(c2cc3nc(Nc4cnn(C5CC5)c4)ncc3cc2Cl)CC1 [Ex-3.7, 1-{6-chloro-2-[(1-cyclopropyl-1H-pyrazol-4-yl)amino]quinazolin-7-yl} piperidin-4-ol] | 1.44
CCn1ncc(Nc2ncc3ccc(N4C(=O)C5CCC4C5)cc3n2)c1C (stereo not shown) [Ex-7.19, 2-{2-[(1-ethyl-5-methyl-1H-pyrazol-4-yl)amino]quinazolin-7-yl}-2-azabicyclo[2.2.1]heptan-3-one] | 2.53
Cc1c(Nc2cc3cc(N4CCN([C@]5(C)COC[C@@H]5O)CC4)c(Cl)cc3cn2)cnn1C1CC1 (single isomer, unassigned) [Ex-1.1, (3R,4R) or (3S,4S) 4-(4-(7-chloro-3-((1-cyclopropyl-5-methyl-1H-pyrazol-4-yl)amino)isoquinolin-6-yl)piperazin-1-yl)-4-methyltetrahydrofuran-3-ol] | 0.716
Cc1c(Nc2ncc3cc(Cl)c(N4CCN(C5COCC5O)CC4)cc3n2)cnn1C(F)F (single isomer, unassigned) [Ex-13.7, (3S,4S) or (3R, 4R)-4-(4-(6-chloro-2-((1-(difluoromethyl)-5-methyl-1H-pyrazol-4-yl)amino)quinazolin-7-yl)piperazin-1-yl)tetrahydrofuran-3-ol] | 31.6
